A word on the Ki: it is the equilibrium dissociation constant of an inhibitor or competing ligand from its target.

Test [1] deals with T1, 5-hydroxytryptamine receptor 2A (Homo sapiens, UniProt P28223). The test can be described thus: Inhibition of [125I](+/-)DOI binding to 5-HT2AR (unknown origin ) expressed in HEK293 cells at 10 uM by scintillation counter analysis. It counts as cell-based.
The target in test [2] is T1, 5-hydroxytryptamine receptor 2A. In words: Inhibition of 5-HT2AR (unknown origin ) assessed as inhibition constant.
For test [3] the target is unchanged. The test can be described thus: Inhibition of [125I](+/-)DOI binding to 5-HT2AR (unknown origin ) expressed in HEK293 cells assessed as inhibition constant by scintillation counter analysis. It counts as cell-based.
In test [4] the target is 5-hydroxytryptamine receptor 2B (Homo sapiens, UniProt P41595). In words: Inhibition of [125I](+/-)DOI binding to 5-HT2BR (unknown origin ) expressed in CHO cells assessed as inhibition constant by scintillation counter analysis. It counts as cell-based.
Chain of 5-hydroxytryptamine receptor 2B (P41595 whole entry): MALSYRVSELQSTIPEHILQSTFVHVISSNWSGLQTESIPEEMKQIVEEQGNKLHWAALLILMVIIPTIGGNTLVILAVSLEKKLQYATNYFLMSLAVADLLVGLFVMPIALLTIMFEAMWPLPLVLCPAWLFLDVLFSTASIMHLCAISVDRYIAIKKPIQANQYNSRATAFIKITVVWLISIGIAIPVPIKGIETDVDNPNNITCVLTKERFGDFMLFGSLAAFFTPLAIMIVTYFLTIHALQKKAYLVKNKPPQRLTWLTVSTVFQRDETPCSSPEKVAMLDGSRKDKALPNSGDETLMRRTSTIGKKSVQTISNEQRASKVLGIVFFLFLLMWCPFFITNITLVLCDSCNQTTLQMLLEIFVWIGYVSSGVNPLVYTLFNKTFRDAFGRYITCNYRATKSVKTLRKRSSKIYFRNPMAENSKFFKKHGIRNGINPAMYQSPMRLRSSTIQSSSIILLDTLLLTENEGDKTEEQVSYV

Structures are written as SMILES. Activity calls are given as the source filed them. The rule behind the calls is not given here. Where only a bound is given, the exact number is not on record here.

T1 sequence (P28223 whole entry): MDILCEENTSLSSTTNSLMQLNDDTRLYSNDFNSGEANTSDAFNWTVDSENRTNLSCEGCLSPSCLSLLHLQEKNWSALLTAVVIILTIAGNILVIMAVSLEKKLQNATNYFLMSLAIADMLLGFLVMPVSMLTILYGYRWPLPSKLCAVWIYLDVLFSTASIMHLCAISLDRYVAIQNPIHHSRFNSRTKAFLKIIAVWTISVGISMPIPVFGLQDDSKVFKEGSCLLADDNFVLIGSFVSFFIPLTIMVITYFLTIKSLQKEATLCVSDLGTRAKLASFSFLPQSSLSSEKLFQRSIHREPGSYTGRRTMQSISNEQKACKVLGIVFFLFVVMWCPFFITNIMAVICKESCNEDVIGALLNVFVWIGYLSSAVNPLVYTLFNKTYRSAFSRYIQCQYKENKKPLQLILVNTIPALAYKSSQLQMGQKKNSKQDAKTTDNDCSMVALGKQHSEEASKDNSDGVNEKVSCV

Take `CCOP(=O)(OCC)c1cccc2[nH]cc(CCN(C)C)c12`: in test [1], the inhibition entry is “Active”.

Regarding `CN(C)CCc1c[nH]c2cccc(OP(=O)(O)O)c12` [PSILOCYBIN], the Ki in test [2] was more than 10000 nM.

On to `CCOP(=O)(OCC)c1ccc2[nH]cc(CCN(C)C)c2c1`, for which the Ki in test [3] was 620 nM; in test [4], 140 nM. Also, the inhibition entry in test [1] was “Active”.
